These results are taken from patent US11999728B2, “Estrogen receptor modulators” (Recurium IP Holdings, LLC, priority 2020, dated 2024).

The structures appear in SMILES notation.

One assay concerns MCF7. Kind of assay: Breast Cancer Cell Proliferation Assay (MCF-7), Cell Titer-Glo. The class given is cell-based. The note with it: Homo sapiens, 120 h, MCF7 cells, 5 days of compound exposure. Here is the method: Breast Cancer Cell Proliferation Assay (MCF-7)
MCF7 was expanded and maintained in the medium (Phenol red free DMEM/F12 (Hyclone SH30272.01) NEAA (Gibco11140-050) Na-pyruvate (Gibco 11360-070) and Re-stripped Charcoal stripped FBS (Gemini 100-119)). The cells were adjusted to a concentration of 3,000 cells per mL in the above media, and the cells were incubated (37° C., 5% CO2). The following day a 10-point, serial dilution of compounds was added to the cells at a final concentration ranging from 10-0.000005 μM for test compounds (17β-estradiol was used as a control). Additional cells were plated in 30 wells to serve as the day 1 (pretreatment) comparison. After 5 days of compound exposure, Cell Titer-Glo reagent was added to the cells and the relative luminescence units (RLUs) of each well was determined. Cell Titer-Glo was also added to 32 μL of medium without cells to obtain a background value. The plates were allowed to incubate at room temperature for 10 minutes to stabilize luminescent signal and the luminescence signal was recorded with EnSpire. The relative increase in cell number of each sample is determined as follows: (RLU sample-RLU background/RLU estrogen only treated cells-RLU background)×100=% inhibition.
Molecule `C[C@@H]1Cc2c([nH]c3ccccc23)[C@@H](c2ccc(NC3CN(CCC#N)C3)cn2)N1C12CC(C1)C2` [Compound 4, 3-(3-((6-((1S,3R)-2-(bicyclo[1.1.1]pentan-1-yl)-3-methyl-2,3,4,9-tetrahydro-1H-pyrido[3,4-b]indol-1-yl)pyridin-3-yl)amino)azetidin-1-yl)propanenitrile] yielded an IC50 of 0.025 to 0.25 µM.

The same assay, now with this note: Homo sapiens, MCF7, 120 h, MCF7 cells, 5 days of compound exposure.
In the case of `C#CCN1CC(Nc2ccc([C@@H]3c4[nH]c5ccccc5c4C[C@@H](C)N3C34CC(C3)C4)nc2)C1` [Compound 48, 6-((1S,3R)-2-(bicyclo[1.1.1]pentan-1-yl)-3-methyl-2,3,4,9-tetrahydro-1H-pyrido[3,4-b]indol-1-yl)-N-(1-(prop-2-yn-1-yl)azetidin-3-yl)pyridin-3-amine], the IC50 is not above 0.025 µM.
Molecule `C[C@@H]1Cc2c([nH]c3ccccc23)[C@@H](c2c(F)cc(O[C@@H]3CCN(CCCF)C3)cc2F)N1C12CC(C#N)(C1)C2` (single isomer, unassigned) [Compound 37] displayed an IC50 not above 0.025 µM.
Regarding `CCCNCC1CCN(c2ccc([C@@H]3c4[nH]c5ccccc5c4C[C@@H](C)N3C34CC(C3)C4)cc2)CC1` [Compound 93, N-((1-(4-((1R,3R)-2-(bicyclo[1.1.1]pentan-1-yl)-3-methyl-2,3,4,9-tetrahydro-1H-pyrido[3,4-b]indol-1-yl)phenyl)piperidin-4-yl)methyl)propan-1-amine], the IC50 was not above 0.025 µM.
Molecule `C[C@@H]1Cc2c([nH]c3ccccc23)[C@@H](c2ccc(O[C@H]3CCN(CCCF)C3)cn2)N1C12CC(C1)C2` (single isomer, unassigned) [Compound 12] showed an IC50 of 0.025 to 0.25 µM.
In turn, `CCCN1C[C@@H](Nc2ccc([C@@H]3c4[nH]c5ccccc5c4C[C@@H](C)N3C34CC(C3)C4)cc2)C[C@@H]1C` [Compound 89, (3S,5S)—N-(4-((1R,3R)-2-(bicyclo[1.1.1]pentan-1-yl)-3-methyl-2,3,4,9-tetrahydro-1H-pyrido[3,4-b]indol-1-yl)phenyl)-5-methyl-1-propylpyrrolidin-3-amine] displayed an IC50 of 0.025 to 0.25 µM.
In the case of `C[C@@H]1Cc2c([nH]c3ccccc23)[C@@H](c2ccc(OC3CN(CCCF)C3)cc2)N1C12CC(CO)(C1)C2` (single isomer, unassigned) [Compound 50], the IC50 was not above 0.025 µM.
As to `C[C@H](F)CN1CC(Nc2ccc([C@@H]3c4[nH]c5ccccc5c4C[C@@H](C)N3C34CC(C3)C4)cc2)C1` (single isomer, unassigned) [Compound 83], the IC50 is not above 0.025 µM.
Regarding `CCCCN1C[C@@H](F)[C@H](Nc2ccc([C@@H]3c4[nH]c5ccccc5c4C[C@@H](C)N3C34CC(C3)C4)cc2)C1` [Compound 84, (3R,4R)—N-(4-((1R,3R)-2-(bicyclo[1.1.1]pentan-1-yl)-3-methyl-2,3,4,9-tetrahydro-1H-pyrido[3,4-b]indol-1-yl)phenyl)-1-butyl-4-fluoropyrrolidin-3-amine], the IC50 was not above 0.025 µM.
The molecule `C[C@@H]1Cc2c([nH]c3ccccc23)[C@@H](c2ccc(N3CC(NCCCF)C3)cn2)N1C12CC(C1)C2` [Compound 49, 1-(6-((1S,3R)-2-(bicyclo[1.1.1]pentan-1-yl)-3-methyl-2,3,4,9-tetrahydro-1H-pyrido[3,4-b]indol-1-yl)pyridin-3-yl)-N-(3-fluoropropyl)azetidin-3-amine] displayed an IC50 not below 0.25 µM.
Consider `C[C@@H]1Cc2c([nH]c3ccccc23)[C@@H](c2c(F)cc(OC3CN(CCCF)C3)cc2F)N1C12CC(C1)C2` [Compound 23, (1R,3R)-2-(bicyclo[1.1.1]pentan-1-yl)-1-(2,6-difluoro-4-((1-(3-fluoropropyl)azetidin-3-yl)oxy)phenyl)-3-methyl-2,3,4,9-tetrahydro-1H-pyrido[3,4-b]indole], for which the IC50 is not above 0.025 µM.
On the same count and under the same terms, for `C[C@H]1Cc2c([nH]c3ccccc23)[C@H](c2c(F)cc(O[C@@H]3CCN(CCCF)C3)cc2F)N1C12CC(C(N)=O)(C1)C2` (single isomer, unassigned) [Compound 33] the value was not below 0.25 µM; for `C[C@]12CC[C@@H]3c4ccc(O)cc4C[C@@H](CCCCCCCCC[S+]([O-])CCCC(F)(F)C(F)(F)F)[C@H]3[C@@H]1CC[C@@H]2O` (stereo partly shown) [fulvestrant, reference compound], not above 0.025 µM; for `C[C@@H]1Cc2c([nH]c3ccccc23)[C@@H](c2c(F)cc(NCCN3CCCC3)cc2F)N1C12CC(C1)C2` [Compound 22, 4-((1R,3R)-2-(bicyclo[1.1.1]pentan-1-yl)-3-methyl-2,3,4,9-tetrahydro-1H-pyrido[3,4-b]indol-1-yl)-3,5-difluoro-N-(2-(pyrrolidin-1-yl)ethyl)aniline], 0.025 to 0.25 µM.
Consider `C[C@H]1Cc2c([nH]c3ccccc23)[C@H](c2c(F)cc(NC3CN(CCCF)C3)cc2F)N1C12CC(CO)(C1)C2` (single isomer, unassigned) [Compound 17], for which the IC50 is not below 0.25 µM.
`C[C@@H]1Cc2c([nH]c3ccccc23)[C@@H](c2ccc(O[C@@H]3CCN(CCCF)C3)nc2)N1C12CC(C1)C2` (single isomer, unassigned) [Compound 9] registered an IC50 of 0.025 to 0.25 µM.
In turn, `C[C@@H]1Cc2c([nH]c3ccccc23)[C@@H](c2cnc(N[C@H]3CCN(CCCF)C3)cn2)N1C12CC(C1)C2` [Compound 44, 5-((1S,3R)-2-(bicyclo[1.1.1]pentan-1-yl)-3-methyl-2,3,4,9-tetrahydro-1H-pyrido[3,4-b]indol-1-yl)-N—((S)-1-(3-fluoropropyl)pyrrolidin-3-yl)pyrazin-2-amine] gave an IC50 not below 0.25 µM.
On the same count and under the same terms, the result for `C[C@H]1Cc2c([nH]c3ccccc23)[C@H](c2ccc(NC3CN(CCCF)C3)cc2)N1C12CC(CF)(C1)C2` (single isomer, unassigned) [Compound 63] reads not above 0.025 µM; that for `C[C@@H]1Cc2c([nH]c3ccccc23)[C@@H](c2c(F)cc(NC3CN(CCF)C3)cc2F)N1C12CC(C1)C2` [Compound 56, N-(4-((1R,3R)-2-(bicyclo[1.1.1]pentan-1-yl)-3-methyl-2,3,4,9-tetrahydro-1H-pyrido[3,4-b]indol-1-yl)-3,5-difluorophenyl)-1-(2-fluoroethyl)azetidin-3-amine], not above 0.025 µM; that for `C[C@@H]1Cc2c([nH]c3ccccc23)[C@@H](c2ccc(OC3CN(CCO)C3)cc2)N1C12CC(C1)C2` [Compound 46, 2-(3-(4-((1R,3R)-2-(bicyclo[1.1.1]pentan-1-yl)-3-methyl-2,3,4,9-tetrahydro-1H-pyrido[3,4-b]indol-1-yl)phenoxy)azetidin-1-yl)ethan-1-ol], not below 0.25 µM.
`C[C@@H]1Cc2c([nH]c3ccccc23)[C@@H](c2ccc(N[C@@H]3CN(CCCF)C[C@@H]3F)cc2)N1C12CC(C1)C2` (single isomer, unassigned) [Compound 73] yielded an IC50 not above 0.025 µM.
In turn, `CCCN1CC(Oc2ccc([C@@H]3c4[nH]c5ccccc5c4C[C@@H](C)N3C34CC(C3)C4)cn2)C1` [Compound 43, (1R,3R)-2-(bicyclo[1.1.1]pentan-1-yl)-3-methyl-1-(6-((1-propylazetidin-3-yl)oxy)pyridin-3-yl)-2,3,4,9-tetrahydro-1H-pyrido[3,4-b]indole] had an IC50 of 0.025 to 0.25 µM.
The same measure, in the same setting: the result for `C[C@@H]1Cc2c([nH]c3ccccc23)[C@@H](c2ncc(NC3CN(CCCF)C3)cn2)N1C12CC(C1)C2` [Compound 60, 2-((1S,3R)-2-(bicyclo[1.1.1]pentan-1-yl)-3-methyl-2,3,4,9-tetrahydro-1H-pyrido[3,4-b]indol-1-yl)-N-(1-(3-fluoropropyl)azetidin-3-yl)pyrimidin-5-amine] reads not below 0.25 µM.
The same measure, in the same setting: for `C[C@@H]1Cc2c([nH]c3ccccc23)[C@@H](c2ccc(N[C@H]3CCN(CCCF)C3)cn2)N1C12CC(C1)C2` [Compound 55, 6-((1S,3R)-2-(bicyclo[1.1.1]pentan-1-yl)-3-methyl-2,3,4,9-tetrahydro-1H-pyrido[3,4-b]indol-1-yl)-N—((S)-1-(3-fluoropropyl)pyrrolidin-3-yl)pyridin-3-amine] the value was not below 0.25 µM; for `C[C@@H]1Cc2c([nH]c3ccccc23)[C@@H](c2ccc(NCCN3CCC(CF)C3)nc2)N1C12CC(C1)C2` (stereo partly drawn) [Compound 29, 5-((1R,3R)-2-(bicyclo[1.1.1]pentan-1-yl)-3-methyl-2,3,4,9-tetrahydro-1H-pyrido[3,4-b]indol-1-yl)-N-(2-(3-(fluoromethyl)pyrrolidin-1-yl)ethyl)pyridin-2-amine], not below 0.25 µM.
In turn, `C[C@@H]1Cc2c([nH]c3ccccc23)[C@@H](c2ccc(NC3CN(CC(C)(F)F)C3)cc2)N1C12CC(C1)C2` [Compound 88, N-(4-((1R,3R)-2-(bicyclo[1.1.1]pentan-1-yl)-3-methyl-2,3,4,9-tetrahydro-1H-pyrido[3,4-b]indol-1-yl)phenyl)-1-(2,2-difluoropropyl)azetidin-3-amine] yielded an IC50 of 0.025 to 0.25 µM.
`C[C@@H]1Cc2c([nH]c3ccccc23)[C@@H](c2cnc(NC3CN(CCCF)C3)c(F)c2)N1C12CC(C1)C2` [Compound 41, 5-((1R,3R)-2-(bicyclo[1.1.1]pentan-1-yl)-3-methyl-2,3,4,9-tetrahydro-1H-pyrido[3,4-b]indol-1-yl)-3-fluoro-N-(1-(3-fluoropropyl)azetidin-3-yl)pyridin-2-amine] had an IC50 not below 0.25 µM.
With `C[C@@H]1Cc2c([nH]c3ccccc23)[C@@H](c2ncc(NC3CN(CCCF)C3)cc2F)N1C12CC(C1)C2` [Compound 13, 6-((1S,3R)-2-(bicyclo[1.1.1]pentan-1-yl)-3-methyl-2,3,4,9-tetrahydro-1H-pyrido[3,4-b]indol-1-yl)-5-fluoro-N-(1-(3-fluoropropyl)azetidin-3-yl)pyridin-3-amine], the IC50 is not above 0.025 µM.
